According to patent US9334289B2, “Cephem compound having catechol or pseudo-catechol structure” (SHIONOGI & CO., LTD., priority 2011, dated 2016):
Converted amounts (≈) assume the structure as drawn. One block for each molecule: values may come before it.

What was measured:
Assay in all cases: MIC, CLSI broth microdilution, Test Example 2
Type in all cases: cell-based
[1] = tested on: A. baumannii SR01331; conditions: Acinetobacter baumannii, SR01331; PER-1, OXA-23.51 ESBL- & OXA-type carbapenemase producing strain; cation-adjusted Iso-Sensitest broth containing human Apo-transferrin; 5×10^5 cfu/mL; read-out: Minimum Inhibitory Concentration (MIC) A. baumannii SR01331
Protocol: (§1) Measurement of Minimum Inhibitory Concentration (MIC: μg/mL) was conducted according to CLSI (Clinical and Laboratory Standards Institute) method, and the amount of bacteria for inoculation was 5×10^5 cfu/mL, and cation-adjusted Iso-Sensitest broth containing human Apo-transferrin was used as a test medium, and the experiment was conducted using broth microdilution method.

[2] = tested on: E. cloacae NCTC13464; conditions: Enterobacter cloacae, NCTC13464; CTX-M group 9 ESBL producing strain; cation-adjusted Iso-Sensitest broth containing human Apo-transferrin; 5×10^5 cfu/mL; read-out: Minimum Inhibitory Concentration (MIC) E. cloacae NCTC 13464
Protocol: as §1

[3] = tested on: E. coli ATCCBAA-196; conditions: Escherichia coli, ATCCBAA196; TEM-10 ESBL producing strain; cation-adjusted Iso-Sensitest broth containing human Apo-transferrin; 5×10^5 cfu/mL; read-out: Minimum Inhibitory Concentration (MIC) E. coli ATCC BAA-196
Protocol: as §1

[4] = tested on: E. coli ATCCBAA-200; conditions: Escherichia coli, ATCCBAA200; SHV-4 ESBL producing strain; cation-adjusted Iso-Sensitest broth containing human Apo-transferrin; 5×10^5 cfu/mL; read-out: Minimum Inhibitory Concentration (MIC) E. coli ATCC BAA-200
Protocol: as §1

[5] = tested on: E. coli SR01337; conditions: Escherichia coli, SR01337; TEM-1 ESBL producing strain; cation-adjusted Iso-Sensitest broth containing human Apo-transferrin; 5×10^5 cfu/mL; read-out: Minimum Inhibitory Concentration (MIC) E. coli SR01337
Protocol: as §1

[6] = tested on: K. pneumoniae ATCC700603; conditions: Klebsiella pneumoniae, ATCC700603; SHV18 ESBL producing strain; cation-adjusted Iso-Sensitest broth containing human Apo-transferrin; 5×10^5 cfu/mL; read-out: Minimum Inhibitory Concentration (MIC) K. pneumoniae ATCC 700603
Protocol: as §1

[7] = tested on: P. aeruginosa SR01332; conditions: Pseudomonas aeruginosa, SR01332; VIM-11 MBL producing strain (carbapenem resistance strain); cation-adjusted Iso-Sensitest broth containing human Apo-transferrin; 5×10^5 cfu/mL; read-out: Minimum Inhibitory Concentration (MIC) P. aeruginosa SR01332
Protocol: as §1

[8] = tested on: P. aeruginosa SR01335; conditions: Pseudomonas aeruginosa, SR01335; VIM-1 like MBL producing strain (carbapenem resistance strain); cation-adjusted Iso-Sensitest broth containing human Apo-transferrin; 5×10^5 cfu/mL; read-out: Minimum Inhibitory Concentration (MIC) P. aeruginosa SR01335
Protocol: as §1

Structure (SMILES): Cc1cc2cc(O)c(O)cc2c[n+]1CC1=C(c2nnn[n-]2)N2C(=O)[C@@H](NC(=O)/C(=N\OC(C)(C)C(=O)[O-])c3nc(N)sc3Cl)[C@H]2SC1.[Na+] [Compound I-38]
- MIC [1]: 0.5 µg/mL
- MIC [2]: 0.125 µg/mL
- MIC [3]: 0.063 µg/mL
- MIC [4]: 0.25 µg/mL
- MIC [5]: ≤ 0.031 µg/mL
- MIC [6]: 0.125 µg/mL
- MIC [7]: 0.5 µg/mL
- MIC [8]: 1 µg/mL

Structure (SMILES): CC(C)(O/N=C(\C(=O)N[C@@H]1C(=O)N2C(c3nnn[n-]3)=C(C[N+]3(CCNC(=O)c4ccc(O)c(O)c4Cl)CCCC3)CS[C@H]12)c1csc(N)n1)C(=O)[O-].[Na+] [Compound I-82]
- MIC [1]: 0.5 µg/mL
- MIC [2]: 0.125 µg/mL
- MIC [3]: 0.125 µg/mL
- MIC [4]: 0.25 µg/mL
- MIC [5]: ≤ 0.031 µg/mL
- MIC [6]: 0.125 µg/mL
- MIC [7]: 4 µg/mL
- MIC [8]: 1 µg/mL

Structure (SMILES): Nc1nc(/C(=N/O[C@@H](CC(=O)[O-])C(=O)[O-])C(=O)N[C@@H]2C(=O)N3C(c4nnn[n-]4)=C(C[N+]45CCC[C@H]4CN(C(=O)c4cc(O)c(O)c(F)c4)CC5)CS[C@H]23)cs1.[Na+].[Na+] (stereo partly shown) [Compound I-63]
- MIC [1]: 1 µg/mL
- MIC [2]: 0.25 µg/mL
- MIC [3]: 0.063 µg/mL
- MIC [4]: 0.25 µg/mL
- MIC [5]: 0.063 µg/mL
- MIC [6]: 0.25 µg/mL
- MIC [7]: 2 µg/mL
- MIC [8]: 2 µg/mL

Structure (SMILES): CC(C)(O/N=C(\C(=O)N[C@@H]1C(=O)N2C(c3nnn[n-]3)=C(C[N+]3(CCNC(=O)c4cc(O)c(O)c(Cl)c4)CCCC3)CS[C@H]12)c1nc(N)sc1Cl)C(=O)[O-].[Na+] [Compound I-30]
- MIC [1]: 1 µg/mL
- MIC [2]: 0.063 µg/mL
- MIC [3]: ≤ 0.031 µg/mL
- MIC [4]: 0.063 µg/mL
- MIC [5]: ≤ 0.031 µg/mL
- MIC [6]: 0.125 µg/mL
- MIC [7]: 2 µg/mL
- MIC [8]: 2 µg/mL

Structure (SMILES): CC(C)(O/N=C(\C(=O)N[C@@H]1C(=O)N2C(c3nnn[n-]3)=C(C[n+]3ccc(CNC(=O)c4ccc(O)c(O)c4Cl)cc3)CS[C@H]12)c1nc(N)sc1Cl)C(=O)[O-].[Na+] [Compound I-31]
- MIC [1]: 0.5 µg/mL
- MIC [2]: 0.125 µg/mL
- MIC [3]: 0.063 µg/mL
- MIC [4]: 0.25 µg/mL
- MIC [5]: ≤ 0.031 µg/mL
- MIC [6]: 0.125 µg/mL
- MIC [7]: 1 µg/mL
- MIC [8]: 1 µg/mL

Structure (SMILES): CC(C)(O/N=C(\C(=O)N[C@@H]1C(=O)N2C(c3nnn[n-]3)=C(C[n+]3cccc4c3CCCN4C(=O)c3ccc(O)c(O)c3Cl)CS[C@H]12)c1nc(N)sc1Cl)C(=O)[O-].[Na+] [Compound I-28]
- MIC [1]: 0.5 µg/mL
- MIC [2]: 0.5 µg/mL
- MIC [3]: 0.125 µg/mL
- MIC [4]: 0.5 µg/mL
- MIC [5]: ≤ 0.031 µg/mL
- MIC [6]: 0.125 µg/mL
- MIC [7]: 1 µg/mL
- MIC [8]: 1 µg/mL

Structure (SMILES): CC(C)(O/N=C(\C(=O)N[C@@H]1C(=O)N2C(c3nnn[nH]3)=C(C[N+]3(C)[C@@H]4CC[C@H]3C[C@@H](NC(=O)c3cc(O)c(O)c(F)c3)C4)CS[C@H]12)c1nsc(N)n1)C(=O)O.[Na+] (stereo partly shown) [Compound I-117]
- MIC [1]: 0.5 µg/mL
- MIC [2]: 0.5 µg/mL
- MIC [3]: 1 µg/mL
- MIC [4]: 1 µg/mL
- MIC [5]: 0.063 µg/mL
- MIC [6]: 0.25 µg/mL
- MIC [7]: 4 µg/mL
- MIC [8]: 2 µg/mL

Structure (SMILES): CC(C)(O/N=C(\C(=O)N[C@@H]1C(=O)N2C(c3nnn[n-]3)=C(C[N@+]34CCC[C@H]3CN(C(=O)c3cc(O)c(O)c(Cl)c3)CC4)CS[C@H]12)c1nc(N)sc1Cl)C(=O)[O-].[Na+] [Compound I-29]
- MIC [1]: 0.5 µg/mL
- MIC [2]: 0.063 µg/mL
- MIC [3]: ≤ 0.031 µg/mL
- MIC [4]: 0.063 µg/mL
- MIC [5]: ≤ 0.031 µg/mL
- MIC [6]: 0.125 µg/mL
- MIC [7]: 4 µg/mL
- MIC [8]: 2 µg/mL

Second part, the molecule after the results:

- MIC [1]: 0.5 µg/mL (≈ 0.657 µM)
- MIC [2]: 0.063 µg/mL (≈ 0.0828 µM)
- MIC [3]: 0.25 µg/mL (≈ 0.329 µM)
- MIC [4]: 0.5 µg/mL (≈ 0.657 µM)
- MIC [5]: 0.063 µg/mL (≈ 0.0828 µM)
- MIC [6]: 0.125 µg/mL (≈ 0.164 µM)
- MIC [7]: 2 µg/mL (≈ 2.63 µM)
- MIC [8]: 2 µg/mL (≈ 2.63 µM)
Structure (SMILES): CC(C)(O/N=C(\C(=O)N[C@@H]1C(=O)N2C(c3nnn[nH]3)=C(C[N+]3(CCNC(=O)c4ccc(O)c(O)c4F)CCCC3)CS[C@H]12)c1nsc(N)n1)C(=O)[O-] [Compound I-107]

- MIC [1]: 1 µg/mL (≈ 1.31 µM)
- MIC [2]: 0.125 µg/mL (≈ 0.164 µM)
- MIC [3]: 0.25 µg/mL (≈ 0.329 µM)
- MIC [4]: 0.25 µg/mL (≈ 0.329 µM)
- MIC [5]: ≤ 0.031 µg/mL
- MIC [6]: 0.25 µg/mL (≈ 0.329 µM)
- MIC [7]: 2 µg/mL (≈ 2.63 µM)
- MIC [8]: 2 µg/mL (≈ 2.63 µM)
Structure (SMILES): CC(C)(O/N=C(\C(=O)N[C@@H]1C(=O)N2C(c3nnn[nH]3)=C(C[N+]3(CCNC(=O)c4cc(O)c(O)c(F)c4)CCCC3)CS[C@H]12)c1nsc(N)n1)C(=O)[O-] [Compound I-108]

- MIC [1]: 0.5 µg/mL (≈ 0.63 µM)
- MIC [2]: 0.125 µg/mL (≈ 0.157 µM)
- MIC [3]: ≤ 0.031 µg/mL
- MIC [4]: 0.063 µg/mL (≈ 0.0793 µM)
- MIC [5]: ≤ 0.031 µg/mL
- MIC [6]: 0.125 µg/mL (≈ 0.157 µM)
- MIC [7]: 4 µg/mL (≈ 5.04 µM)
- MIC [8]: 2 µg/mL (≈ 2.52 µM)
Structure (SMILES): CC(C)(O/N=C(\C(=O)N[C@@H]1C(=O)N2C(c3nnn[nH]3)=C(C[N+]3(CCNC(=O)c4cc(O)c(O)c(F)c4)CCCC3)CS[C@H]12)c1nc(N)sc1Cl)C(=O)[O-] [Compound I-104]

- MIC [1]: 0.25 µg/mL (≈ 0.303 µM)
- MIC [2]: 0.25 µg/mL (≈ 0.303 µM)
- MIC [3]: ≤ 0.031 µg/mL
- MIC [4]: 0.063 µg/mL (≈ 0.0764 µM)
- MIC [5]: ≤ 0.031 µg/mL
- MIC [6]: 0.125 µg/mL (≈ 0.152 µM)
- MIC [7]: 2 µg/mL (≈ 2.43 µM)
- MIC [8]: 2 µg/mL (≈ 2.43 µM)
Structure (SMILES): Nc1nc(/C(=N/O[C@@H](CC(=O)O)C(=O)[O-])C(=O)N[C@@H]2C(=O)N3C(c4nnn[nH]4)=C(C[N+]4(CCNC(=O)c5cc(O)c(O)c(F)c5)CCCC4)CS[C@H]23)c(Cl)s1 [Compound I-100]

- MIC [1]: 0.5 µg/mL (≈ 0.63 µM)
- MIC [2]: 0.063 µg/mL (≈ 0.0793 µM)
- MIC [3]: ≤ 0.031 µg/mL
- MIC [4]: 0.063 µg/mL (≈ 0.0793 µM)
- MIC [5]: ≤ 0.031 µg/mL
- MIC [6]: ≤ 0.031 µg/mL
- MIC [7]: 4 µg/mL (≈ 5.04 µM)
- MIC [8]: 1 µg/mL (≈ 1.26 µM)
Structure (SMILES): CC(C)(O/N=C(\C(=O)N[C@@H]1C(=O)N2C(c3nnn[nH]3)=C(C[N+]3(CCNC(=O)c4ccc(O)c(O)c4F)CCCC3)CS[C@H]12)c1nc(N)sc1Cl)C(=O)[O-] [Compound I-106]

- MIC [1]: 1 µg/mL (≈ 1.27 µM)
- MIC [2]: 0.125 µg/mL (≈ 0.159 µM)
- MIC [3]: 0.25 µg/mL (≈ 0.317 µM)
- MIC [4]: 0.5 µg/mL (≈ 0.634 µM)
- MIC [5]: ≤ 0.031 µg/mL
- MIC [6]: 0.25 µg/mL (≈ 0.317 µM)
- MIC [7]: 8 µg/mL (≈ 10.1 µM)
- MIC [8]: 2 µg/mL (≈ 2.54 µM)
Structure (SMILES): CC(C)(O/N=C(\C(=O)N[C@@H]1C(=O)N2C(c3nnn[nH]3)=C(C[N@+]34CCC[C@H]3CN(C(=O)c3ccc(O)c(O)c3Cl)CC4)CS[C@H]12)c1csc(N)n1)C(=O)[O-] [Compound I-98]
